Measurements taken from patent US11884661B2, “3-substituted propionic acids as αV integrin inhibitors” (BRISTOL-MYERS SQUIBB COMPANY, priority 2016, dated 2024).

What follows are molecules tested against T1, human αVβ6 (Homo sapiens, UniProt P06756+P18564) (assay: human αVβ6 HTRF binding assay). Conditions: recombinant human αVβ6 integrin, FITC-conjugated fibronectin.
T1 construct: purchased R & D systems 3817-AV
Experimental: All binding assays used the HTRF (homogeneous time resolved fluorescence) technology from Cisbio International, therefore all assays are described as HTRF binding assays. The assay results for the Examples are listed above together with the characterization data. The HTRF binding assays are established for the following integrins: human αVβ6, human αVβ1, human αVβ3, human αVβ5, and human αVβ8. All assays used the following assay buffer: 20 mM Tris, pH 7.4, 1 mM MgCl2, 1 mM MnCl2, 0.01% Tween 20, and 0.01% BSA. Alternatively, a SPA-based assay was used for evaluation of receptor binding.
The following describes the components and a representative procedure for the human αVβ6 HTRF binding assay: Recombinant human αVβ6 Integrin (R & D systems, 3817-AV) was biotinylated. Biotinylated human αVβ6 Integrin was added to assay vessel at a final concentration of 1.25 nM. FITC-conjugated fibronectin (Cytoskeleton, FNR02) was then added at the final concentration of 5 nM. The mixture was centrifuged at 600 rpm for three minutes using Thermo Fisher Heraeus Multifuge X3 centrifuge and then incubated at RT for an hour. Streptavidin Terbium (Cisbio international 610STLB) was then added at the final concentration of 0.625 nM. The resulting mixture was centrifuged at 600 rpm for three minutes using Thermo Fisher Heraeus Multifuge X3 centrifuge and then incubated at room temperature overnight in dark before reading HTRF signals.

T1 sequence (P06756 31-992 limits assumed): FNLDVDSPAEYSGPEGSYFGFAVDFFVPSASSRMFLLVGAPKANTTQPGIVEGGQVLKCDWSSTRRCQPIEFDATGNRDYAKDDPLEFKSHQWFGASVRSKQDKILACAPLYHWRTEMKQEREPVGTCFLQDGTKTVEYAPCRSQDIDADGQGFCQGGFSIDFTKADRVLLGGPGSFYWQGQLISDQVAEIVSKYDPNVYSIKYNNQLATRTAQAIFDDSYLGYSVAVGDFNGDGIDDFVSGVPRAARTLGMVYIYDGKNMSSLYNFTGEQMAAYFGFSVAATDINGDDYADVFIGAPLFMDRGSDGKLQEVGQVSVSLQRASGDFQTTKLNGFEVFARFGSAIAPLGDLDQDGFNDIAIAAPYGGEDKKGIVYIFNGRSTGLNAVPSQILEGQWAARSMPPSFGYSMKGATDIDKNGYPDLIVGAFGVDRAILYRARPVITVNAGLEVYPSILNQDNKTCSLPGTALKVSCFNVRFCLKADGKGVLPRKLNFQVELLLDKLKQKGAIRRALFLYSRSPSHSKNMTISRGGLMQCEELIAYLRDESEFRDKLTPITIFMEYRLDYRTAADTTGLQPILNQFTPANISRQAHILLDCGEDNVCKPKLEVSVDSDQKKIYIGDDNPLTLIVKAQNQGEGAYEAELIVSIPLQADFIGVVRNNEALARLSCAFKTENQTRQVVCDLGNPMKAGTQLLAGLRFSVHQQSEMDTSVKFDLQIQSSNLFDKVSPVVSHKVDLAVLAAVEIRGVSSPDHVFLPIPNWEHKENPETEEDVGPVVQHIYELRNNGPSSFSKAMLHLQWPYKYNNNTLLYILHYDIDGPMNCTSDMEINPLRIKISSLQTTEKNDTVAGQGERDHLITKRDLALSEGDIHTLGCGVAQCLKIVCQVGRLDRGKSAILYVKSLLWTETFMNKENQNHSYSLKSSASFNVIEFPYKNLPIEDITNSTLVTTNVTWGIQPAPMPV
T1 sequence (P18564 22-707 limits assumed): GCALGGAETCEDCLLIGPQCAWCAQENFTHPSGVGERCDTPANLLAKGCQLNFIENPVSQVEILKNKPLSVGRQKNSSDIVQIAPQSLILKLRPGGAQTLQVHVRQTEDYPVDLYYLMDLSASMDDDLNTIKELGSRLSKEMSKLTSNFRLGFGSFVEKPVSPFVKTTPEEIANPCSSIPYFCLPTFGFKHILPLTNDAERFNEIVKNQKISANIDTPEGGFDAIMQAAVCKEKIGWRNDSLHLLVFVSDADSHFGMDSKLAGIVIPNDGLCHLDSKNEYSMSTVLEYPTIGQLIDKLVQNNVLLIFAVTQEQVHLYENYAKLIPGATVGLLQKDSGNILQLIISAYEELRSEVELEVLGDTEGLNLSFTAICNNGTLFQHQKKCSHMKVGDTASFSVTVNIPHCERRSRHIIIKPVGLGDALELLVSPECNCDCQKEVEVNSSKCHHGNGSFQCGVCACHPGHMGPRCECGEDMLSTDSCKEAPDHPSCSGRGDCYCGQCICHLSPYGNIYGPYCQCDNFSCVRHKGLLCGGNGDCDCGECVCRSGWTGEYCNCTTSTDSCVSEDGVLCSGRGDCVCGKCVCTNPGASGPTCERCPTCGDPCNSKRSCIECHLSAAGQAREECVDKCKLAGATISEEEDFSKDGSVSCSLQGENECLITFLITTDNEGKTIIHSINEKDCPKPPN

Row | SMILES | IC50 [nM]
1 | Cc1cncc(C(CC(=O)O)n2ccc(CCCc3ccc4c(n3)NCCC4)n2)c1 (single isomer, unassigned) [Example 69, 3-(5-methylpyridin-3-yl)-3-{3-[3-(5,6,7,8-tetrahydro-1,8-naphthyridin-2-yl)propyl]-1H-pyrazol-1-yl}propanoic acid] | 15
2 | Cc1cncc(C(CC(=O)O)n2ccc(CCCc3ccc4c(n3)NCCC4)n2)c1 (single isomer, unassigned) [Example 70, 3-(5-methylpyridin-3-yl)-3-{3-[3-(5,6,7,8-tetrahydro-1,8-naphthyridin-2-yl)propyl]-1H-pyrazol-1-yl}propanoic acid] | 4900
3 | COCCOc1cncc(C(CC(=O)O)n2ccc(CCCc3ccc4c(n3)NCCC4)n2)c1 (single isomer, unassigned) [Example 80, 3-(5-(2-methoxyethoxy)pyridin-3-yl)-3-(3-(3-(5,6,7,8-tetrahydro-1,8-naphthyridin-2-yl)propyl)-1H-pyrazol-1-yl)propanoic acid] | 1.8
4 | O=C(O)CC(c1cncc(N2CCOCC2)c1)n1nccc1CCCc1ccc2c(n1)NCCC2 (single isomer, unassigned) [Example 94, 3-(5-morpholinopyridin-3-yl)-3-(5-(3-(5,6,7,8-tetrahydro-1,8-naphthyridin-2-yl)propyl)-1H-pyrazol-1-yl)propanoic acid] | 19
5 | O=C(O)CC(c1cncc(N2CCOCC2)c1)n1nccc1CCCc1ccc2c(n1)NCCC2 (single isomer, unassigned) [Example 95, 3-(5-morpholinopyridin-3-yl)-3-(5-(3-(5,6,7,8-tetrahydro-1,8-naphthyridin-2-yl)propyl)-1H-pyrazol-1-yl)propanoic acid] | 230
6 | Cc1ncc(C(CC(=O)O)n2ccc(CCCc3ccc4c(n3)NCCCC4)n2)cn1 (single isomer, unassigned) [Example 97, 3-(2-methylpyrimidin-5-yl)-3-(3-(3-(6,7,8,9-tetrahydro-5H-pyrido[2,3-b]azepin-2-yl)propyl)-1H-pyrazol-1-yl)propanoic acid] | 45
7 | COc1ccc(C(CC(=O)O)n2ccc(CCCc3ccc4c(n3)NCCCC4)n2)cn1 (single isomer, unassigned) [Example 101, 3-(6-methoxypyridin-3-yl)-3-(3-(3-(6,7,8,9-tetrahydro-5H-pyrido[2,3-b]azepin-2-yl)propyl)-1H-pyrazol-1-yl)propanoic acid] | 4.3
8 | COc1ccc(C(CC(=O)O)n2ccc(CCCc3ccc4c(n3)NCCCC4)n2)cn1 (single isomer, unassigned) [Example 102, 3-(6-methoxypyridin-3-yl)-3-(3-(3-(6,7,8,9-tetrahydro-5H-pyrido[2,3-b]azepin-2-yl)propyl)-1H-pyrazol-1-yl)propanoic acid] | 150
9 | COc1ncc(C(CC(=O)O)n2ccc(CCCc3ccc4c(n3)NCCCC4)n2)cn1 (single isomer, unassigned) [Example 104, 3-(2-methoxypyrimidin-5-yl)-3-(3-(3-(6,7,8,9-tetrahydro-5H-pyrido[2,3-b]azepin-2-yl)propyl)-1H-pyrazol-1-yl)propanoic acid] | 10
10 | COc1ncc(C(CC(=O)O)n2ccc(CCCc3ccc4c(n3)NCCCC4)n2)cn1 (single isomer, unassigned) [Example 105] | 470
11 | COc1ccc(C(CC(=O)O)c2cc(CCCc3ccc4c(n3)NCCC4)[nH]n2)cc1F (single isomer, unassigned) [Example 115, 3-(3-Fluoro-4-methoxyphenyl)-3-(5-(3-(5,6,7,8-tetrahydro-1,8-naphthyridin-2-yl)propyl)-1H-pyrazol-3-yl)propanoic acid] | 97
12 | CN(C)C(=O)c1cccc(C(CC(=O)O)c2nc(CCCCc3ccc4c(n3)NCCC4)cs2)c1 (single isomer, unassigned) [Example 117, 3-(3-(dimethylcarbamoyl)phenyl)-3-(4-(4-(5,6,7,8-tetrahydro-1,8-naphthyridin-2-yl)butyl)thiazol-2-yl)propanoic acid] | 76
13 | CN(C)C(=O)c1cccc(C(CC(=O)O)c2nc(CCCCc3ccc4c(n3)NCCC4)cs2)c1 (single isomer, unassigned) [Example 118, 3-(3-(dimethylcarbamoyl)phenyl)-3-(4-(4-(5,6,7,8-tetrahydro-1,8-naphthyridin-2-yl)butyl)thiazol-2-yl)propanoic acid] | 1.9
14 | O=C(O)CC(c1ccc2nccnc2c1)c1nc(CCCCc2ccc3c(n2)NCCC3)cs1 (single isomer, unassigned) [Example 119, 3-(quinoxalin-6-yl)-3-(4-(4-(5,6,7,8-tetrahydro-1,8-naphthyridin-2-yl)butyl)thiazol-2-yl)propanoic acid] | 99
15 | O=C(O)CC(c1ccc2nccnc2c1)c1nc(CCCCc2ccc3c(n2)NCCC3)cs1 (single isomer, unassigned) [Example 120, 3-(quinoxalin-6-yl)-3-(4-(4-(5,6,7,8-tetrahydro-1,8-naphthyridin-2-yl)butyl)thiazol-2-yl)propanoic acid] | 14
16 | CN(C)c1ccc(C(CC(=O)O)c2nc(CCCCc3ccc4c(n3)NCCC4)cs2)cn1 (single isomer, unassigned) [Example 121, 3-(6-(dimethylamino)pyridin-3-yl)-3-(4-(4-(5,6,7,8-tetrahydro-1,8-naphthyridin-2-yl)butyl)thiazol-2-yl)propanoic acid] | 170
17 | CN(C)c1ccc(C(CC(=O)O)c2nc(CCCCc3ccc4c(n3)NCCC4)cs2)cn1 (single isomer, unassigned) [Example 122, 3-(6-(dimethylamino)pyridin-3-yl)-3-(4-(4-(5,6,7,8-tetrahydro-1,8-naphthyridin-2-yl)butyl)thiazol-2-yl)propanoic acid] | 3.5
18 | COc1ccc(C(CC(=O)O)c2nc(CCCCc3ccc4c(n3)NCCC4)cs2)cc1OC (single isomer, unassigned) [Example 123, 3-(3,4-dimethoxyphenyl)-3-(4-(4-(5,6,7,8-tetrahydro-1,8-naphthyridin-2-yl)butyl)thiazol-2-yl)propanoic acid] | 180
19 | COc1ccc(C(CC(=O)O)c2nc(CCCCc3ccc4c(n3)NCCC4)cs2)cc1OC (single isomer, unassigned) [Example 124, 3-(3,4-dimethoxyphenyl)-3-(4-(4-(5,6,7,8-tetrahydro-1,8-naphthyridin-2-yl)butyl)thiazol-2-yl)propanoic acid] | 2.5
20 | O=C(O)CC(c1cccc(N2CCOCC2)c1)c1nc(CCCCc2ccc3c(n2)NCCC3)cs1 (single isomer, unassigned) [Example 125, 3-(3-morpholinophenyl)-3-(4-(4-(5,6,7,8-tetrahydro-1,8-naphthyridin-2-yl)butyl)thiazol-2-yl)propanoic acid] | 180
21 | O=C(O)CC(c1cccc(N2CCOCC2)c1)c1nc(CCCCc2ccc3c(n2)NCCC3)cs1 (single isomer, unassigned) [Example 126, 3-(3-morpholinophenyl)-3-(4-(4-(5,6,7,8-tetrahydro-1,8-naphthyridin-2-yl)butyl)thiazol-2-yl)propanoic acid] | 6
22 | CN(C)C(=O)c1ccc(C(CC(=O)O)c2nc(CCCCc3ccc4c(n3)NCCC4)cs2)cc1 (single isomer, unassigned) [Example 127, 3-(4-(dimethylcarbamoyl)phenyl)-3-(4-(4-(5,6,7,8-tetrahydro-1,8-naphthyridin-2-yl)butyl)thiazol-2-yl)propanoic acid] | 60
23 | CN(C)C(=O)c1ccc(C(CC(=O)O)c2nc(CCCCc3ccc4c(n3)NCCC4)cs2)cc1 (single isomer, unassigned) [Example 128, 3-(4-(dimethylcarbamoyl)phenyl)-3-(4-(4-(5,6,7,8-tetrahydro-1,8-naphthyridin-2-yl)butyl)thiazol-2-yl)propanoic acid] | 4.3
24 | CCOc1ncc(C(CC(=O)O)c2nc(CCCCc3ccc4c(n3)NCCC4)cs2)cn1 (single isomer, unassigned) [Example 129, 3-(2-ethoxypyrimidin-5-yl)-3-(4-(4-(5,6,7,8-tetrahydro-1,8-naphthyridin-2-yl)butyl)thiazol-2-yl)propanoic acid] | 28
25 | CCOc1ncc(C(CC(=O)O)c2nc(CCCCc3ccc4c(n3)NCCC4)cs2)cn1 (single isomer, unassigned) [Example 130, 3-(2-ethoxypyrimidin-5-yl)-3-(4-(4-(5,6,7,8-tetrahydro-1,8-naphthyridin-2-yl)butyl)thiazol-2-yl)propanoic acid] | 2.9
26 | CN(C)C(=O)c1ccc(C(CC(=O)O)c2nc(CCCCc3ccc4c(n3)NCCC4)cs2)cc1F (single isomer, unassigned) [Example 131, 3-(4-(dimethylcarbamoyl)-3-fluorophenyl)-3-(4-(4-(5,6,7,8-tetrahydro-1,8-naphthyridin-2-yl)butyl)thiazol-2-yl)propanoic acid] | 2.3
27 | CN(C)C(=O)c1ccc(C(CC(=O)O)c2nc(CCCCc3ccc4c(n3)NCCC4)cs2)cc1F (single isomer, unassigned) [Example 132, 3-(4-(dimethylcarbamoyl)-3-fluorophenyl)-3-(4-(4-(5,6,7,8-tetrahydro-1,8-naphthyridin-2-yl)butyl)thiazol-2-yl)propanoic acid] | 81
